Patent US20170121344A1 (Siga Technologies, Inc., priority 2009, published 2017)
Where two headings read alike, the source gives them in different places.

Test system: Dengue-2 (Strain New Guinea C)
Assay: Viral yield assay against Dengue-2 in Vero cells
Type: cell-based, Dengue virus
Method: Compounds that were active in the primary screen were tested for activity in viral yield assays. […] Vero cells in 12-well plates were infected with dengue-2 virus at a multiplicity of infection (MOI) of 0.1, treated with compound (or DMSO as a control), incubated at 37° C., harvested 48 hours post infection and titered on Vero cells as described above. The EC50 was calculated through ExcelFit. Activities against other serotypes of dengue virus were determined in a similar way.

[1] = Dengue virus, DENV2, viral yield assay, Vero cells, MOI 0.1, 48 hours post infection, read-out: Activity (EC50 in μM) DENV-2
[2] = Dengue virus, Vero cells, MOI 0.1, harvested 48 hours post infection, read-out: Activity (EC50 class) against Dengue-2 Virus in Vero cells
[3] = Dengue virus, Vero, 48 h, read-out: Activity (EC50 class) against Dengue-2 Virus in Vero cells

`Nc1c(C(=O)Nc2cc(Cl)ccc2Cl)sc2nc(-c3ccc4c(c3)OCO4)ccc12` [Compound 587, 3-amino-6-(1,3-benzodioxol-5-yl)-N-(2,5-dichlorophenyl)thieno[2,3-b]pyridine-2-carboxamide] was tested, and the EC50 [1] was < 5 µM.
With `CN1CCc2nc3sc(C(=O)Nc4cccc(Cl)c4)c(N)c3cc2C1` [Compound 18, 3-Amino-6-methyl-5,6,7,8-tetrahydro-thieno[2,3-b][1,6]naphthyridine-2-carboxylic acid (3-chloro-phenyl)-amide] the EC50 [2] was < 5 µM.
In the case of `Cc1cc(NC(=O)c2sc3nc4c(cc3c2N)CN(C)CC4)on1` [Compound 264, 3-Amino-6-methyl-5,6,7,8-tetrahydro-thieno[2,3-b][1,6]naphthyridine-2-carboxylic acid (3-methyl-isoxazol-5-yl)-amide], the EC50 [2] is reported as > 25 µM.
With `CCN1CCc2nc3sc(C(=O)N4CCc5ccccc5C4)c(N)c3cc2C1` [Compound 22, (3-Amino-6-ethyl-5,6,7,8-tetrahydro-thieno[2,3-b][1,6]naphthyridin-2-yl)-(3,4-dihydro-1H-isoquinolin-2-yl)-methanone] the EC50 [3] was < 5 µM.
With `C=CCc1c(C)nc2sc(C(=O)Nc3cccc(Cl)c3)c(N)c2c1C` [Compound 96, 5-Allyl-3-amino-4,6-dimethyl-thieno[2,3-b]pyridine-2-carboxylic acid (3-chloro-phenyl)-amide] the EC50 [2] was 5 to 25 µM.
With `CC(=O)c1cccc(NC(=O)c2sc3nc(C)cc(C)c3c2N)c1` [Compound 256, 3-Amino-4,6-dimethyl-thieno[2,3-b]pyridine-2-carboxylic acid (3-acetyl-phenyl)-amide] the EC50 [2] was > 25 µM.
`COCc1cc(C)nc2sc(C(=O)NCc3ccco3)c(N)c12` [Compound 209, 3-Amino-4-methoxymethyl-6-methyl-thieno[2,3-b]pyridine-2-carboxylic acid (furan-2-ylmethyl)-amide] was tested, and the EC50 [2] was > 25 µM.
`CN1CCc2nc3sc(C(=O)Nc4ccccc4)c(N)c3c(-c3cccs3)c2C1` [Compound 34, 3-Amino-6-methyl-4-thiophen-2-yl-5,6,7,8-tetrahydro-thieno[2,3-b][1,6]naphthyridine-2-carboxylic acid phenylamide] was tested, and the EC50 [2] was < 5 µM.
In the case of `CCc1nnc(NC(=O)c2sc3nc4c(cc3c2N)CCCC4)s1` [Compound 92, 3-Amino-5,6,7,8-tetrahydro-thieno[2,3-b]quinoline-2-carboxylic acid (5-ethyl-[1,3,4]thiadiazol-2-yl)-amide], the EC50 [2] is reported as 5 to 25 µM.
`Cc1cc(C)c(NC(=O)c2sc3nc4c(cc3c2N)C(=O)CCC4)c(C)c1` [Compound 94, 3-Amino-5-oxo-5,6,7,8-tetrahydro-thieno[2,3-b]quinoline-2-carboxylic acid (2,4,6-trimethyl-phenyl)-amide] showed an EC50 [2] of 5 to 25 µM.
`CCOC(=O)c1ccc(NC(=O)c2sc3nc4c(cc3c2N)CN(C(C)C)CC4)cc1` [Compound 25, 4-[(3-Amino-6-isopropyl-5,6,7,8-tetrahydro-thieno[2,3-b][1,6]naphthyridine-2-carbonyl)-amino]-benzoic acid ethyl ester] was tested, and the EC50 [2] was < 5 µM.
With `CCc1nnc(NC(=O)c2sc3nc4c(cc3c2N)CN(C)CC4)s1` [Compound 268, 3-Amino-6-methyl-5,6,7,8-tetrahydro-thieno[2,3-b][1,6]naphthyridine-2-carboxylic acid (5-ethyl-[1,3,4]thiadiazol-2-yl)-amide] the EC50 [2] was > 25 µM.
With `CCN(CC)C(=O)c1sc2nc3c(cc2c1N)CCC3` [Compound 138, 3-Amino-6,7-dihydro-5H-cyclopenta[b]thieno[3,2-e]pyridine-2-carboxylic acid diethylamide] the EC50 [3] was > 25 µM.
`Nc1c(C(=O)Nc2ccncc2)sc2nc(-c3cccs3)ccc12` [Compound 357, 3-amino-N-(4-pyridyl)-6-(2-thienyl)thieno [2,3-b]pyridine-2-carboxamide] was tested, and the EC50 [1] was < 5 µM.
In the case of `COc1ccc(-c2ccc3c(N)c(C(=O)Nc4ccccc4C)sc3n2)cc1OC` [Compound 581, 3-amino-6-(3,4-dimethoxyphenyl)-N-(o-tolyl)thieno[2,3-b]pyridine-2-carboxamide], the EC50 [1] is reported as < 5 µM.
`CN1CCc2nc3sc(C(=O)Nc4cccnc4Cl)c(N)c3cc2C1` [Compound 46, 3-Amino-6-methyl-5,6,7,8-tetrahydro-thieno[2,3-b][1,6]naphthyridine-2-carboxylic acid (2-chloro-pyridin-3-yl)-amide] was tested, and the EC50 [2] was < 5 µM.
In the case of `COCc1cc(C)nc2sc(C(=O)Nc3ccc(Cl)cc3)c(N)c12` [Compound 81, 3-Amino-4-methoxymethyl-6-methyl-thieno[2,3-b]pyridine-2-carboxylic acid (4-chloro-phenyl)-amide], the EC50 [3] is reported as 5 to 25 µM.
`Cc1ccc(NC(=O)c2sc3nc4c(cc3c2N)CCCCC4)cc1` [Compound 175, 3-Amino-6,7,8,9-tetrahydro-5H-1-thia-10-aza-cyclohepta[f]indene-2-carboxylic acid p-tolylamide] was tested, and the EC50 [2] was > 25 µM.
With `Cc1ccc(-c2ccc3c(N)c(C(=O)Nc4ccccc4C)sc3n2)cc1` [Compound 637, 3-amino-N-(o-tolyl)-6-(p-tolyl)thieno [2,3-b]pyridine-2-carboxamide] the EC50 [1] was < 5 µM.
With `Cc1ccccc1NC(=O)c1sc2nc3c(c(-c4ccco4)c2c1N)CCCC3` [Compound 218, 3-Amino-4-furan-2-yl-5,6,7,8-tetrahydro-thieno[2,3-b]quinoline-2-carboxylic acid o-tolylamide] the EC50 [3] was > 25 µM.
`COc1cccc(-c2ccc3c(N)c(C(=O)Nc4cc(C(F)(F)F)ccc4Cl)sc3n2)c1` [Compound 560, 3-amino-N-[2-chloro-5-(trifluoromethyl)phenyl]-6-(3-methoxyphenyl)thieno [2,3-b]pyridine-2-carboxamide] was tested, and the EC50 [1] was < 5 µM.
With `CC(=O)N(CCN)c1c(C(=O)Nc2nnc(-c3ccccc3)s2)sc2nc3c(cc12)CCCCC3` [Compound 314, 3-(N-(2-amino-ethyl)acetamido)-N-(5-phenyl-1,3,4-thiadiazol-2-yl)-6,7,8,9-tetrahydro-5H-cylcohepta[b]thieno[3,2-e]pyridine-2-carboxamide] the EC50 (Vero cells, read-out: Activity (EC50 in μM) DENV-2) was < 5 µM.
With `CCOc1ccccc1NC(=O)c1sc2nc(-c3cccc(OC)c3)ccc2c1N` [Compound 501, 3-amino-N-(2-ethoxyphenyl)-6-(3-methoxyphenyl)thieno[2,3-b]pyridine-2-carboxamide] the EC50 [1] was < 5 µM.
In the case of `CCN(CC)C(=O)c1sc2nc3c(cc2c1N)CN(C(C)C)CC3` [Compound 271, 3-Amino-6-isopropyl-5,6,7,8-tetrahydro-thieno[2,3-b][1,6]naphthyridine-2-carboxylic acid diethylamide], the EC50 [3] is reported as > 25 µM.
In the case of `COc1cc(-c2c(C#N)c(N)nc3sc(C(N)=O)c(N)c23)cc(OC)c1OC` [Compound 155, 3,6-Diamino-5-cyano-4-(3,4,5-trimethoxy-phenyl)-thieno[2,3-b]pyridine-2-carboxylic acid amide], the EC50 [2] is reported as > 25 µM.
In the case of `Cc1cc(C)c2c(N)c(C(=O)Nc3ccc(S(N)(=O)=O)cc3)sc2n1` [Compound 183, 3-Amino-4,6-dimethyl-thieno[2,3-b]pyridine-2-carboxylic acid (4-sulfamoyl-phenyl)-amide], the EC50 [2] is reported as > 25 µM.
In the case of `CCc1nc2c(sc3nc4c(cc32)COC(C)(C)C4)c(=O)n1Cc1ccco1` [Compound 235, 3-Ethyl-2-furan-2-ylmethyl-8,8-dimethyl-8,9-dihydro-2H,6H-7-oxa-11-thia-2,4,10-triaza-benzo[b]fluoren-1-one], the EC50 [3] is reported as > 25 µM.
`Cc1c(C(=O)N(C)C2CCCC(C)C2)sc2nc(C(F)(F)F)ccc12` (centres unmarked) [Compound 399, N,3-dimethyl-N-(3-methylcyclohexyl)-6-(trifluoromethyl)thieno[2,3-b]pyridine-2-carboxamide] was tested, and the EC50 [1] was < 5 µM.
With `COc1cccc(-c2ccc3c(N)c(C(=O)Nc4ccc(Br)cc4F)sc3n2)c1` [Compound 556, 3-amino-N-(4-bromo-2-fluoro-phenyl)-6-(3-methoxyphenyl)thieno[2,3-b]pyridine-2-carboxamide] the EC50 [1] was < 5 µM.
`Nc1c(C(=O)Nc2ccc([N+](=O)[O-])cc2)sc2nc3c(c(-c4ccco4)c12)CCCC3` [Compound 213, 3-Amino-4-furan-2-yl-5,6,7,8-tetrahydro-thieno[2,3-b]quinoline-2-carboxylic acid (4-nitro-phenyl)-amide] was tested, and the EC50 [2] was > 25 µM.
In the case of `Cc1cc(C)c2c(N)c(C(=O)Nc3ccc(Br)cc3)sc2n1` [Compound 172, 3-Amino-4,6-dimethyl-thieno[2,3-b]pyridine-2-carboxylic acid (4-bromo-phenyl)-amide], the EC50 [3] is reported as > 25 µM.
`COc1cccc(-c2ccc3c(N)c(C(=O)Nc4cc(OC)c(OC)c(OC)c4)sc3n2)c1` [Compound 520, 3-amino-6-(3-methoxyphenyl)-N-(3,4,5-trimethoxyphenyl)thieno[2,3-b]pyridine-2-carboxamide] was tested, and the EC50 [1] was < 5 µM.
With `COc1ccc(NC(=O)c2sc3nc(-c4ccc(F)cc4)ccc3c2N)cc1OC` [Compound 619, 3-amino-N-(3,4-dimethoxyphenyl)-6-(4-fluorophenyl)thieno[2,3-b]pyridine-2-carboxamide] the EC50 (Dengue virus, DENV2, Vero, 48 h, read-out: Activity (EC50 in μM) DENV-2) was < 5 µM.
`COc1ccccc1NC(=O)c1sc2nc(N3CCOCC3)c3c(c2c1N)CC(C)(C)OC3` [Compound 247, 1-Amino-8,8-dimethyl-5-morpholin-4-yl-8,9-dihydro-6H-7-oxa-3-thia-4-aza-cyclopenta[a]naphthalene-2-carboxylic acid (2-methoxy-phenyl)-amide] was tested, and the EC50 [2] was > 25 µM.
In the case of `COCc1cc(C)nc2sc(C(=O)N3CCc4ccccc43)c(N)c12` [Compound 249, (3-Amino-4-methoxymethyl-6-methyl-thieno[2,3-b]pyridin-2-yl)-(2,3-dihydro-indol-1-yl)-methanone], the EC50 [2] is reported as > 25 µM.
